The results in this text go back to ChEMBL document CHEMBL5046256, “The discovery of potent small molecule cyclic urea activators of STING” (Eur J Med Chem, 2022).

The source made the active and inactive calls. No cut-off for these calls is given here.

For data set [1], the system named is PBMC. The data set is described as follows: Effects of compound on IFN-alpha production in cynomolgus monkey PBMC cells assessed as increase in […] level at 10 uM and measured upto 24 hrs by ELISA. To be noted: Macaca fascicularis. The data set is classed as functional, cell-based.
The target in data set [2] is T1, Stimulator of interferon genes protein (Homo sapiens, UniProt Q86WV6). The data set is described as follows: Agonist activity against human STING HAQ variant expressed in HEK-293T cells co-expressing ISRE.ISG54 incubated for 18 hrs by luciferase reporter gene assay. The class given is cell-based.
T1 sequence (Q86WV6 whole entry, looked up, stated change not applied): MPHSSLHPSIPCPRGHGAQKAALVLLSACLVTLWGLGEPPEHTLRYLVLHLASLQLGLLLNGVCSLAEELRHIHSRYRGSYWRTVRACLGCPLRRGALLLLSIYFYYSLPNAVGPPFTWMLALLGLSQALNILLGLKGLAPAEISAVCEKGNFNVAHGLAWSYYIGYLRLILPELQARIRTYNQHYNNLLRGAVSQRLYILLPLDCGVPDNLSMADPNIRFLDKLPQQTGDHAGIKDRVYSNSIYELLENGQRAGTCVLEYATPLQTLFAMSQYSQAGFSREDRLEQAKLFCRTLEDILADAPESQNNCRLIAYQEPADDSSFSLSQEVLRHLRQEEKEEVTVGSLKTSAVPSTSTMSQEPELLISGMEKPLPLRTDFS
Data set [3] is described as follows: AUC in Balb/c mouse at 25 mg/kg, iv measured by LC-MS/MS analysis. The data set is classed as ADME, organism-based. Also on record: dose 25 mg/kg. As to conditions: in vivo.
Data set [4] can be described thus: Oral bioavailability in Balb/c mouse at 25 mg/kg measured by LC-MS/MS analysis. The class given is ADME, organism-based. As to conditions: in vivo.
Data set [5] in a line: Half life in Balb/c mouse at 25 mg/kg, iv measured by LC-MS/MS analysis. The data set is classed as ADME, organism-based. As to conditions: in vivo.
Data set [6] relates to PBMC. Description: Effects of compound on IL-6 production in cynomolgus monkey PBMC cells assessed as increase in IL-6 level at 10 uM and measured upto 24 hrs by ELISA. The class given is functional, cell-based. As to conditions: Macaca fascicularis.
The nature of data set [7]: Cmax/C0 in monkey at 2.5 mg/kg, iv measured by LC-MS/MS analysis. The data set is classed as ADME, organism-based, Macaca mulatta. More on the design: route intravenous, dose 2.5 mg/kg. As to conditions: rhesus monkey, in vivo.
A short description of data set [8]: Cmax/C0 in Balb/c mouse at 25 mg/kg, iv measured by LC-MS/MS analysis. The data set is classed as ADME, organism-based. More on the design: route intravenous, dose 25 mg/kg. As to conditions: in vivo.
The nature of data set [9]: Agonist activity against cynomolgus monkey STING expressed in HEK-293T cells co-expressing co-expressing ISRE.ISG54 by luciferase reporter gene assay. The class given is cell-based. To be noted: Macaca fascicularis.
A short description of data set [10]: AUC in monkey at 2.5 mg/kg, iv measured by LC-MS/MS analysis. More on the design: dose 2.5 mg/kg. The class given is ADME, organism-based, Macaca mulatta. As to conditions: rhesus monkey, in vivo.
Data set [11] deals with T1, Stimulator of interferon genes protein. Description: Agonist activity against human STING AQ variant transfected in HEK-293T cells co-expressing ISRE.ISG54 incubated for 18 hrs by luciferase reporter gene assay. The class given is cell-based.
Data set [12] in a line: Agonist activity against human STING R232H variant transfected in HEK-293T cells co-expressing ISRE.ISG54 by luciferase reporter gene assay. The class given is cell-based. To be noted: Homo sapiens, HEK-293T.
A short description of data set [13]: AUC in Balb/c mouse at 25 mg/kg, po measured by LC-MS/MS analysis. The class given is ADME, organism-based. More on the design: dose 25 mg/kg. As to conditions: in vivo.
Data set [14] can be described thus: Half life in monkey at 2.5 mg/kg, iv measured by LC-MS/MS analysis. The data set is classed as ADME, organism-based, Macaca mulatta. To be noted: rhesus monkey, in vivo.
Data set [15] addresses T1, Stimulator of interferon genes protein. Description: Agonist activity against human STING H232 variant transfected in HEK-293T cells co-expressing ISRE.ISG54 incubated for 18 hrs by luciferase reporter gene assay. The class given is cell-based.
Data set [16] concerns PBMC. The data set is described as follows: Effect of compound on STING phosphorylation in cynomolgus monkey PBMC cells at 10 uM for 2 hrs by immunoblotting. The data set is classed as functional, cell-based. To be noted: Macaca fascicularis.
The target of data set [17] is T1, Stimulator of interferon genes protein. Description: Agonist activity against human STING HAQ variant expressed in THP-1 cells co-expressing ISRE.ISG54 incubated for 18 hrs by luciferase reporter gene assay. The class given is cell-based.
In data set [18] the test system is Stimulator of interferon genes protein (Homo sapiens), Q86WV6 [UNDEFINED MUTATION]. Description: Binding affinity to human STING R232 variant expressed in HEK-293T cells assessed as increase in thermal stability measured between 51 and 56 deg C at 10 uM for 2 hrs by cellular thermal shift assay. The data set is classed as cell-based. To be noted: filed as agonist.
Stimulator of interferon genes protein (Homo sapiens), Q86WV6 [UNDEFINED MUTATION], sequence (Q86WV6 whole entry, looked up, change not shown): as the sequence (Q86WV6 whole entry, looked up, stated change not applied) above

Data set [19] relates to PBMC. Description: Effects of compound on IFN-beta production in cynomolgus monkey PBMC cells assessed as increase in […] level at 10 uM and measured upto 24 hrs by ELISA. To be noted: Macaca fascicularis. The data set is classed as functional, cell-based.
Data set [20] addresses T1, Stimulator of interferon genes protein. Description: Agonist activity against human STING Q variant expressed in HEK293T cells co-expressing ISRE.ISG54 incubated for 18 hrs by luciferase reporter gene assay. The data set is classed as cell-based. As to conditions: hek-293t.
A short description of data set [21]: Half life in Balb/c mouse at 25 mg/kg, po measured by LC-MS/MS analysis. The data set is classed as ADME, organism-based. As to conditions: in vivo.
Data set [22] is described as follows: Cmax/C0 in Balb/c mouse at 25 mg/kg, po measured by LC-MS/MS analysis. The data set is classed as ADME, organism-based. Also on record: route oral, dose 25 mg/kg. To be noted: in vivo.
Data set [23] relates to PBMC. Description: Effect of compound on IRF3 phosphorylation in cynomolgus monkey PBMC cells at 10 uM for 2 hrs by immunoblotting. The class given is functional, cell-based. As to conditions: Macaca fascicularis.

Regarding `C[C@H]1c2ccc(C(=O)NCc3c(F)cc(F)cc3F)cc2N(Cc2c(F)cccc2Cl)C(=O)N1C`, the result (with PBMC [1]; in the data set with PBMC [6]; in the data set with PBMC [16]; in data set [18]; with PBMC [19]; in the data set with PBMC [23]) was Active. The EC50 came out at 26 nM in [2]; 99 nM in [9]; 83 nM in data set [11]; 18 nM in data set [12]; 59 nM in data set [15]; 341 nM in [17]. Also, the EC50 in data set [20] was 90 nM. Further, the area under the curve (AUC) in [3] worked out at 10900 ng·h/mL; in data set [10] it was 8050 ng·h/mL; in [13] it was 4850 ng·h/mL. The compound also registered a bioavailability in data set [4] of 44%. Further, the half-life in data set [5] is 1.4 h; in data set [14], 7.1 h; in [21], 1.6 h. Besides, the Cmax in [7] turned out to be 5220 ng/mL; in data set [8], 20100 ng/mL; in data set [22] it was 2480 ng/mL.
